Laboratory results taken from paper PMC3348135, “Identification of New Agonists and Antagonists of the Insect Odorant Receptor Co-Receptor Subunit” (PLoS ONE, 2012).

How the values were obtained:
Dmel\Orco + Dmel\Or35a [1] = target: T1, Dmel\Orco + Dmel\Or35a (Drosophila melanogaster, UniProt Q9VNB5); test: Agonist activation of Dmel\Orco + Dmel\Or35a in Xenopus oocytes, two-electrode voltage clamp; assay type: cell-based; details: for Response amplitude as percentage of response to 100 µM OLC3, Dmel\Orco + Dmel\Or35a: 100 µM compound, mean ± SEM, n=3-8; for Emax at 100 µM: read-out: Response amplitude as percentage of response to 100 µM OLC3, Dmel\Orco + Dmel\Or35a
T1 construct: expressed in transfected cells; host or cells: Xenopus laevis oocytes (cRNA injection, pGEMHE)
T1 sequence (Q9VNB5 1-486): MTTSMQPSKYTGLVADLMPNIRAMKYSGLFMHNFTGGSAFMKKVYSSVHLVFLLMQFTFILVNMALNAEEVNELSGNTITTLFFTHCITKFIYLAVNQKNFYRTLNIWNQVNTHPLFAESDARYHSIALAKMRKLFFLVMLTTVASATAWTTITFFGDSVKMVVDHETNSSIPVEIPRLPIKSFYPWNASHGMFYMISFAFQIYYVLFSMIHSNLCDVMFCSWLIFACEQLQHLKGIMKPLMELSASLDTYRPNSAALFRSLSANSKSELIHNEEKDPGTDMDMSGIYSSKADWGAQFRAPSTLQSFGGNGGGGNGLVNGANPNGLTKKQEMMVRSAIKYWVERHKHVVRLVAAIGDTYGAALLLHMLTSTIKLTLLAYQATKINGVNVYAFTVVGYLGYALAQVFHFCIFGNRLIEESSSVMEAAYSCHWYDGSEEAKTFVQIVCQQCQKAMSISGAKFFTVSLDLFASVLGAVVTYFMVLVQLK
T1 sequence (Q9V3Q2 1-409 partner): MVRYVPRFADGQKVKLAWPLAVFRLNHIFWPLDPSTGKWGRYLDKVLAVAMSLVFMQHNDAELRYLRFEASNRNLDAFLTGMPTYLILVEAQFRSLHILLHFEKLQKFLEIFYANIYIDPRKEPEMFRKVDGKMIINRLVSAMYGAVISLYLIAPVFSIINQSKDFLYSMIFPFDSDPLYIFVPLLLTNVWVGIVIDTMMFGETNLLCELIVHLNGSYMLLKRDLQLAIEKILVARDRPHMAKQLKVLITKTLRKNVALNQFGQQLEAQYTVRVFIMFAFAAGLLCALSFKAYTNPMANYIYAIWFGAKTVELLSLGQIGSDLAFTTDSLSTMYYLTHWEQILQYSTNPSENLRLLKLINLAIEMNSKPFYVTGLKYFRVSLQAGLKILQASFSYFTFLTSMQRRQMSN
Description: (§1) Oocytes were surgically removed from mature Xenopus laevis frogs. Follicle cells were removed by treatment with Collagenase B (Boehringer Mannhem) for 2 hours at room temperature. Capped cRNA encoding each DmOR subunit was generated using mMessage mMachine kits (Ambion). For heteromeric ORs, 25 ng of cRNA encoding each OR subunit was injected into Stage V-VI Xenopus oocytes. For expression of Orco alone, 50 ng of cRNA was injected. Oocytes were incubated at 18°C in Barth’s saline (in mM: 88 NaCl, 1 KCl, 2.4 NaHCO3, 0.3 CaNO3, 0.41 CaCl2, 0.82 MgSO4, 15 HEPES, pH 7.6, and 150 µg/ml ceftazidime) for 2–5 days prior to electrophysiological recording.
(§2) Odorant and Orco ligand induced currents were recorded under two-electrode voltage clamp in Xenopus laevis oocytes expressing ORs, using an automated parallel electrophysiology system (OpusExpress 6000A; Molecular Devices). Oocytes were perfused with ND96 (in mM: 96 NaCl, 2 KCl, 1 CaCl2, 1 MgCl2, 5 HEPES, pH 7.5). Odorant stock solutions (0.5 or 1 M) and Orco ligand stock solutions (100 mM) were prepared in DMSO and diluted in ND96. Unless otherwise noted, applications were for 60 sec at a flow rate of 1.0 ml/min, with extensive washing in ND96 (9 or 20 min at 4.6 ml/min) between applications. Micropipettes were filled with 3 M KCl and had resistances of 0.2−2.0 MΩ. The holding potential was −70 mV. Current responses, filtered (4-pole, Bessel, low pass) at 20 Hz (−3 db) and sampled at 100 Hz, were captured and stored using OpusXpress 1.1 software (Molecular Devices).
(§3) Initial analysis of electrophysiological data was done using Clampfit 9.1 software (Molecular Devices). Curve fitting and statistical analyses were done using Prism 5 (Graphpad). Concentration-response data were fit to the equation: I = Imax/(1+(EC50/X)^n) where I represents the current response at a given concentration of odorant, X; Imax is the maximal response; EC50 is the concentration of agonist yielding a half maximal response; n is the apparent Hill coefficient. Concentration-inhibition data were fit to the equation: I = Imax/(1+(X/IC50)^n) where I represents the current response at a given concentration of inhibitor, X; Imax is the maximal response in the absence of inhibitor; IC50 is the concentration of inhibitor present that still allows a half maximal response from odorant; n is the apparent Hill coefficient. Statistical significance was assessed using a two-tailed unpaired t test, an F test, or a one-way analysis of variance followed by the Bonferroni’s post-test, as appropriate.

Cqui\Orco + Cqui\Or10 = Cqui\Orco + Cqui\Or10 (Culex quinquefasciatus, UniProt D5LMR7+Q309I4); test: Activation of Cqui\Orco + Cqui\Or10 in Xenopus oocytes, two-electrode voltage clamp; assay type: cell-based; details: 100 µM compound, mean ± SEM, n=3-8; for Emax at 100 µM: read-out: Response amplitude as percentage of response to 100 µM OLC3, Cqui\Orco + Cqui\Or10
Sequence of Cqui\Orco + Cqui\Or10 (D5LMR7 entry or part of it): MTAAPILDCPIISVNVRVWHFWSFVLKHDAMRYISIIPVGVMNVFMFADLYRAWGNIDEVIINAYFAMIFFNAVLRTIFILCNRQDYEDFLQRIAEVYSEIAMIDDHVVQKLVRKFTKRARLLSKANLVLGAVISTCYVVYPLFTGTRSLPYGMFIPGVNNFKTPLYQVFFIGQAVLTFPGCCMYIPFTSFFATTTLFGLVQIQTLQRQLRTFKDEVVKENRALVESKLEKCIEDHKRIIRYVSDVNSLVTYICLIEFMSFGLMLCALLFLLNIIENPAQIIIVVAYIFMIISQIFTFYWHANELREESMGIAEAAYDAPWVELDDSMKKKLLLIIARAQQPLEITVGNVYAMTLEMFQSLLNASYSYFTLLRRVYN
Sequence of Cqui\Orco + Cqui\Or10 (Q309I4 entry or part of it): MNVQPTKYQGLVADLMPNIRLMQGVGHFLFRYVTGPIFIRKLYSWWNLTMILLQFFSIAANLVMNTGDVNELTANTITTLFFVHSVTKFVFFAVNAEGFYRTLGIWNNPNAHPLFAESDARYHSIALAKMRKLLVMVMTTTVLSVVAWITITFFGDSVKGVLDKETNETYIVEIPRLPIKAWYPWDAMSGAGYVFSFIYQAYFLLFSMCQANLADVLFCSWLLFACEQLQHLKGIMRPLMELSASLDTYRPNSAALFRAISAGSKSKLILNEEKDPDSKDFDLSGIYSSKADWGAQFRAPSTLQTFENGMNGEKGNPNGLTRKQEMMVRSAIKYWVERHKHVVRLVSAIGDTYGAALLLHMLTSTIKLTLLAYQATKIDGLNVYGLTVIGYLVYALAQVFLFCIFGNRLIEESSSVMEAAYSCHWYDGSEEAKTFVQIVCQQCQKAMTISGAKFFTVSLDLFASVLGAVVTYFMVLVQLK
Description: as §1, §2, §3

Dmel\Orco [2] = target: T2, Dmel\Orco (Drosophila melanogaster, UniProt Q9VNB5); test: Agonist activation of homomeric Dmel\Orco in Xenopus oocytes, two-electrode voltage clamp; assay type: cell-based; details: for Response amplitude as percentage of response to 100 µM OLC3, Dmel\Orco: 100 µM compound, mean ± SEM, n=3-8; for Emax at 100 µM: read-out: Response amplitude as percentage of response to 100 µM OLC3, Dmel\Orco
T2 construct: expressed in transfected cells; host or cells: Xenopus laevis oocytes (cRNA injection, pGEMHE)
T2 sequence (Q9VNB5 1-486): T1 sequence (Q9VNB5 1-486)
Description: as §1, §2, §3

Cqui\Orco = test: Agonist activation of homomeric Cqui\Orco in Xenopus oocytes, two-electrode voltage clamp; assay type: cell-based, Culex quinquefasciatus; details: 100 µM compound; mean ± SEM, n=3-8
Onub\Orco + Onub\Or1 = test: Agonist activation of Onub\Orco + Onub\Or1 in Xenopus oocytes, two-electrode voltage clamp; assay type: cell-based, Ostrinia nubilalis; details: 100 µM compound; mean ± SEM, n=3-8
Dmel\Orco [3] = target: T2, Dmel\Orco; test: Inhibition of OLC12 activation of Dmel\Orco in Xenopus oocytes; assay type: cell-based; details: for IC50: activated by 30 µM OLC12 (EC39)
Description: as §1, §2
(§4) In inhibition assays, oocytes were exposed to 60 sec applications of OLC12 with 9 min washes between applications (Fig. 3 and 4) or 60 sec applications of odorant with 20 min washes between applications (Fig. 5). Oocytes were then exposed to a 90 sec application of antagonist candidate, immediately followed by a 60 sec co-application of antagonist candidate and OLC12 or odorant. Oocytes were then exposed to a final 60 sec application of OLC12 or odorant. The current response in the presence of antagonist candidate was compared to the preceding response(s) to OLC12 (or odorant) alone.
as §3

Dmel\Orco + Dmel\Or35a [4] = target: T1, Dmel\Orco + Dmel\Or35a; test: Inhibition of OLC12 activation of Dmel\Orco + Dmel\Or35a in Xenopus oocytes; assay type: cell-based; details: activated by 10 µM OLC12 (EC25); read-out: IC50, Dmel\Orco + Dmel\Or35a (activated by 10 µM OLC12)
Description: as §1, §2, §4, §3

Dmel\Orco + Dmel\Or35a [5] = target: T1, Dmel\Orco + Dmel\Or35a; test: Inhibition of odorant (hexanol) activation of Dmel\Orco + Dmel\Or35a in Xenopus oocytes; assay type: cell-based; details: 3 µM hexanol; OLC2 100 µM, OLC15 50 µM, OLC20 200 µM
Description: as §1, §2
In inhibition assays, oocytes were exposed to 60 sec applications of OLC12 with 9 min washes between applications (Fig. 3 and 4) or 60 sec applications of odorant with 20 min washes between applications (Fig. 5). […]
Initial analysis of electrophysiological data was done using Clampfit 9.1 software (Molecular Devices). […] Statistical significance was assessed using a two-tailed unpaired t test, an F test, or a one-way analysis of variance followed by the Bonferroni’s post-test, as appropriate.

SMILES | Response amplitude as percentage of response to 100 µM OLC3, Dmel\Orco + Dmel\Or35a (Dmel\Orco + Dmel\Or35a [1]) [%] | Response amplitude as percentage of response to 100 µM OLC3, Cqui\Orco + Cqui\Or10 (Cqui\Orco + Cqui\Or10) [%] | Response amplitude as percentage of response to 100 µM OLC3, Dmel\Orco (Dmel\Orco [2]) [%] | Response amplitude as percentage of response to 100 µM OLC3, Cqui\Orco (Cqui\Orco) [%] | Response amplitude as percentage of response to 100 µM OLC3, Onub\Orco + Onub\Or1 (Onub\Orco + Onub\Or1) [%] | Inhibition of activation of Dmel\Orco by 30 µM OLC12 on co-application (Dmel\Orco [3]; 100 µM compound co-applied with 30 µM OLC12) | Emax at 100 µM (Dmel\Orco + Dmel\Or35a [1]) [%] | IC50 (Dmel\Orco + Dmel\Or35a [4]) [µM] | Emax at 100 µM (Cqui\Orco + Cqui\Or10) [%] | IC50 (Dmel\Orco [3]) [µM] | Emax at 100 µM (Dmel\Orco [2]) [%] | Inhibition of the hexanol response of Dmel\Orco+Dmel\Or35a (Dmel\Orco + Dmel\Or35a [5])
CCc1ccc(NC(=O)CSc2nnc(-c3cnccn3)n2CC)cc1 [OLC4] | 4 ± 1 | 0 | 0 | 0 | 4 ± 2 | – | – | – | – | – | – | –
CCn1c(SCC(=O)Nc2ccc(C)cc2)nnc1-c1cccnc1 [OLC5] | 4 ± 1 | 16 ± 2 | 0 | 0 | 4 ± 2 | – | – | – | – | – | – | –
CCn1c(SCC(=O)Nc2cccc(C)c2)nnc1-c1cccnc1 [OLC6] | 0 | 0 | 0 | 4 ± 2 | 0 | – | – | – | – | – | – | –
CCn1c(SCC(=O)Nc2ccc(OC)cc2)nnc1-c1cccnc1 [OLC7] | 4 ± 1 | 4 ± 1 | 0 | 4 ± 2 | 0 | – | – | – | – | – | – | –
CCc1ccccc1NC(=O)CSc1nnc(-c2cccnc2)n1CC [OLC8] | 0 | 0 | 0 | 5 ± 3 | 0 | fails to block | – | – | – | – | – | –
CCCCc1ccc(NC(=O)CSc2nnc(-c3cccnc3)n2CC)cc1 [OLC9] | – | – | – | 0 | 3 ± 1 | – | 5 ± 2 | 40 ± 9 | 0 | 69 ± 7 | 0 | –
CCn1c(SCC(=O)Nc2ccc(Br)cc2)nnc1-c1cccnc1 [OLC10] | 25 ± 7 | 27 ± 16 | 0 | 0 | – | – | – | – | – | – | – | –
CCn1c(SCC(=O)Nc2ccc(Cl)cc2)nnc1-c1cccnc1 [OLC11] | 13 ± 2 | 13 ± 3 | 0 | 0 | – | – | – | – | – | – | – | –
CCn1c(SCC(=O)Nc2ccc(C)c(C)c2)nnc1-c1ccncc1 [OLC13] | 0 | 0 | 0 | 0 | – | – | – | – | – | – | – | –
CCn1c(SCC(=O)Nc2ccc(N(C)C)cc2)nnc1-c1ccncc1 [OLC14] | – | – | – | 0 | – | – | 2 ± 1 | 81 ± 23 | 12 ± 2 | 25 ± 4 | 0 | –
Sc1nnc(-c2cccnc2)[nH]1 [OLC16] | 0 | 0 | 0 | 3 ± 2 | – | – | – | – | – | – | – | –
C=CCn1c(S)nnc1-c1cccnc1 [OLC17] | 0 | 0 | 0 | 3 ± 2 | – | – | – | – | – | – | – | –
Cn1cnnc1-c1ccncc1 [OLC18] | 0 | 0 | 0 | 0 | – | – | – | – | – | – | – | –
CCc1ccc(NC(C)=O)cc1 [OLC19] | 0 | 0 | 0 | 3 ± 2 | – | – | – | – | – | – | – | –
CCc1ccc(NC(=O)c2cccs2)cc1 [OLC20] | – | – | – | 0 | – | – | 0 | 55 ± 15 | 11 ± 4 | 57 ± 19 | 0 | substantial inhibition
CC(C)c1ccc(NC(=O)CSc2nnnn2C)cc1 [OLC21] | 0 | 0 | 0 | 0 | – | – | – | – | – | – | – | –
CCCCc1ccc(NC(=O)c2cccs2)cc1 [OLC22] | – | – | – | 0 | – | – | 0 | 26 ± 4 | 0 | 52 ± 18 | 0 | –
Cc1nnc(-c2ccccn2)[nH]1 [OLC23] | 0 | 8 ± 3 | 0 | 0 | – | – | – | – | – | – | – | –
